Measurements taken from patent publication EP2181998B1, “New benzothiazinone derivative and its use as antibacterial agent” (priority 2006, dated 2007).
In brackets after ≈: the same amount, converted by molar mass. Like-named read-outs stand apart in the source and are kept apart here.

How the values were obtained:
[1] = tested on: Mycobacterium smegmatis SG 987; format: cell-based
[2] = tested on: Mycobacterium tuberculosis H37Rv and clinical isolates 6341 and 6374; experiment: MIC and MBC, classical method, over several strains; format: cell-based; conditions: for MBC: read-out: MBC (µg/mL) mean; for MIC: read-out: MIC (µg/mL) mean
[3] = tested on: M. fortuitum B; conditions: Mycolicibacterium fortuitum, read-out: MIC M.fortuitum
[4] = tested on: Mycobacterium tuberculosis clinical isolate 6374; format: cell-based
[5] = tested on: Mycobacterium tuberculosis clinical isolate 6341; format: cell-based
[6] = tested on: M. vaccae IMET 10 10670; format: cell-based
[7] = tested on: Mycobacterium tuberculosis H37Rv; experiment: Murine TB model (experimental hematogenously disseminated tuberculosis); format: in vivo, BALB/c line mice; conditions: for Survival of animals: Groups 4/5, 25 mg/kg oral
[8] = Mycolicibacterium smegmatis, SG987; read-out: MIC M. smegmatis
[9] = Mycolicibacterium vaccae, IMET1010670; read-out: MIC M.vaccae
[10] = Mycolicibacterium smegmatis, SG987, read-out: MIC M. smegmatis
[11] = Mycolicibacterium vaccae, IMET1010670, read-out: MIC M.vaccae
[12] = 25 mg/kg orally, 42 days after inoculation of the culture medium

## O=c1nc(N2CCC3(CC2)OCCO3)sc2c([N+](=O)[O-])cc(C(F)(F)F)cc12 [Compound 1, 2-(1,4-dioxa-8-azaspiro[4.5]dec-8-yl)-8-nitro-6-(trifluoromethyl)-1,3-benzothiazin-4-one]
[1]; [8]
  MIC: 12.5 ng/mL (≈ 0.0299 µM)
[2]
  MBC: 1.75 µg/mL (≈ 4.19 µM)
  MIC: 1.17 µg/mL (≈ 2.8 µM)
[3]
  MIC: 12.5 ng/mL (≈ 0.0299 µM)
[4]
  MBC: 2.34 µg/mL (≈ 5.61 µM)
  MIC: 1.56 µg/mL (≈ 3.74 µM)
[5]
  MBC: 2.34 µg/mL (≈ 5.61 µM)
  MIC: 1.56 µg/mL (≈ 3.74 µM)
[6]; [9]
  MIC: 3.12 ng/mL (≈ 0.00748 µM)

## O=c1nc(N2CCC3(CC2)OCCO3)sc2c([N+](=O)[O-])cc([N+](=O)[O-])cc12 [Compound 3, 2-(1,4-dioxa-8-azaspiro[4.5]dec-8-yl)-6,8-dinitro-1,3-benzothiazin-4-one]
[1]; [10]
  MIC: 200 ng/mL (≈ 0.507 µM)
[3]
  MIC: 6 ng/mL (≈ 0.0152 µM)
[6]; [11]
  MIC: 1.5 ng/mL (≈ 0.0038 µM)

## CC1COC2(CCN(c3nc(=O)c4cc([N+](=O)[O-])cc([N+](=O)[O-])c4s3)CC2)O1 (stereo not drawn) [Compound 4, 2-(2-methyl-1,4-dioxa-8-azaspiro[4.5]decyl)-6,8-dinitro-1,3-benzothiazin-4-one]
[1]; [10]
  MIC: 200 ng/mL (≈ 0.49 µM)
[3]
  MIC: 3 ng/mL (≈ 0.00735 µM)
[6]; [11]
  MIC: 3 ng/mL (≈ 0.00735 µM)

## CC1OC2(CCN(c3nc(=O)c4cc(C(F)(F)F)cc([N+](=O)[O-])c4s3)CC2)OC1C (stereo not drawn) [Compound 5, 2-(2,3-dimethyl-1,4-dioxa-8-azaspiro[4.5]dec-8-yl)-8-nitro-6-(trifluoromethyl)-1,3-benzothiazin-4-one]
[1]; [8]
  MIC: 6.25 ng/mL (≈ 0.014 µM)
[2]
  MBC: 0.45 µg/mL (≈ 1.01 µM)
  MIC: 0.39 µg/mL (≈ 0.876 µM)
[3]
  MIC: 0.078 ng/mL (≈ 0.000175 µM)
[4]
  MBC: 0.39 µg/mL (≈ 0.876 µM)
  MIC: < 0.39 µg/mL
[5]
  MBC: 0.39 µg/mL (≈ 0.876 µM)
  MIC: < 0.39 µg/mL
[6]; [9]
  MIC: 0.078 ng/mL (≈ 0.000175 µM)

## O=c1nc(N2CCC3(CC2)OCCCCO3)sc2c([N+](=O)[O-])cc([N+](=O)[O-])cc12 [Compound 7, 2-(7,12-dioxa-3-azaspiro[5.6]dodec-3-yl)-6,8-dinitro-1,3-benzothiazin-4-one]
[1]; [10]
  MIC: 780 ng/mL (≈ 1.85 µM)
[3]
  MIC: 3 ng/mL (≈ 0.0071 µM)
[6]; [11]
  MIC: 3 ng/mL (≈ 0.0071 µM)

## Cc1c([N+](=O)[O-])cc2c(=O)nc(N3CCC4(CC3)OCCO4)sc2c1[N+](=O)[O-] [Compound 8, 2-(1,4-dioxa-8-azaspiro[4.5]dec-8-yl)-7-methyl-6,8-dinitro-1,3-benzothiazin-4-one]
[1]; [10]
  MIC: 400 ng/mL (≈ 0.979 µM)
[3]
  MIC: 25 ng/mL (≈ 0.0612 µM)
[6]; [11]
  MIC: 25 ng/mL (≈ 0.0612 µM)

## N#Cc1cc([N+](=O)[O-])c2sc(N3CCC4(CC3)OCCO4)nc(=O)c2c1 [Compound 9, 2-(1,4-dioxa-8-azaspiro[4.5]dec-8-yl)-8-nitro-4-oxo-1,3-benzothiazine-6-carbonitrile]
[1]; [8]
  MIC: 50 ng/mL (≈ 0.134 µM)
[2]
  MBC: 0.75 µg/mL (≈ 2 µM)
  MIC: 0.52 µg/mL (≈ 1.39 µM)
[3]
  MIC: 25 ng/mL (≈ 0.0668 µM)
[4]
  MBC: 0.78 µg/mL (≈ 2.08 µM)
  MIC: 0.58 µg/mL (≈ 1.55 µM)
[5]
  MBC: 1.17 µg/mL (≈ 3.13 µM)
  MIC: 0.78 µg/mL (≈ 2.08 µM)
[6]; [9]
  MIC: 3.12 ng/mL (≈ 0.00833 µM)

## CC1COC2(CCN(c3nc(=O)c4cc(C#N)cc([N+](=O)[O-])c4s3)CC2)O1 (stereo not drawn) [Compound 10, 2-(2-methyl-1,4-dioxa-8-azaspiro[4.5]dec-8-yl)-8-nitro-4-oxo-1,3-benzothiazine-6-carbonitrile]
[1]; [8]
  MIC: 25 ng/mL (≈ 0.0644 µM)
[2]
  MBC: 0.71 µg/mL (≈ 1.83 µM)
  MIC: 0.45 µg/mL (≈ 1.16 µM)
[3]
  MIC: 12.5 ng/mL (≈ 0.0322 µM)
[4]
  MBC: 0.78 µg/mL (≈ 2.01 µM)
  MIC: 0.39 µg/mL (≈ 1 µM)
[5]
  MBC: 0.78 µg/mL (≈ 2.01 µM)
  MIC: 0.58 µg/mL (≈ 1.49 µM)
[6]; [9]
  MIC: 3.12 ng/mL (≈ 0.00803 µM)

## NNC(=O)c1ccncc1 [Isoniazid (INH), Isoniazid, reference compound]
[7]; 25 mg/kg orally, daily 6 times per week, four-score scale, liver, spleen and lungs
  Injury index: 1,2
[7]; 25 mg/kg orally, 100% - injury index of group / injury index of control x 100
  Efficacy index (%): 70,5%
[7]; [12]
  right lung Culture, without dilution CFU: ∼ 40 CFU
  spleen Culture, without dilution CFU: ∼ 40 CFU
[7]; day of treatment 1, of 10 animals
  Survival of animals: 10
[7]; day of treatment 2, of 10 animals
  Survival of animals: 10
[7]; day of treatment 3, of 10 animals
  Survival of animals: 10
[7]; day of treatment 4, of 10 animals
  Survival of animals: 10
[7]; day of treatment 5, of 10 animals
  Survival of animals: 10
[7]; day of treatment 6, of 10 animals
  Survival of animals: 10
[7]; day of treatment 7, of 10 animals
  Survival of animals: 10
[7]; day of treatment 8, of 10 animals
  Survival of animals: 10
[7]; day of treatment 9, of 10 animals
  Survival of animals: 10
[7]; day of treatment 10, of 10 animals
  Survival of animals: 10
[7]; day of treatment 11, of 10 animals
  Survival of animals: 10
[7]; day of treatment 12, of 10 animals
  Survival of animals: 10
[7]; day of treatment 13, of 10 animals
  Survival of animals: 10
[7]; day of treatment 14, of 10 animals
  Survival of animals: 10
[7]; day of treatment 15, of 10 animals
  Survival of animals: 10
[7]; day of treatment 16, of 10 animals
  Survival of animals: 10
[7]; day of treatment 17, of 10 animals
  Survival of animals: 10
[7]; day of treatment 18, of 10 animals
  Survival of animals: 10
[7]; day of treatment 19, of 10 animals
  Survival of animals: 10
[7]; day of treatment 20, of 10 animals
  Survival of animals: 10
[7]; day of treatment 21, of 10 animals
  Survival of animals: 10
[7]; day of treatment 22, of 10 animals
  Survival of animals: 10
[7]; day of treatment 23, of 10 animals
  Survival of animals: 10
[7]; day of treatment 24, of 10 animals
  Survival of animals: 10
[7]; day of treatment 25, of 10 animals
  Survival of animals: 10
[7]; day of treatment 26, of 10 animals
  Survival of animals: 10
[7]; day of treatment 27
  Survival of animals: 100%
[4]
  MBC: > 100 µg/mL
  MIC: > 100 µg/mL
[4]; read-out: MBC (µg/mL) mean
  MBC: > 100 µg/mL
[4]; read-out: MIC (µg/mL) mean
  MIC: > 100 µg/mL
[5]
  MBC: > 100 µg/mL
  MIC: > 100 µg/mL
[5]; read-out: MBC (µg/mL) mean
  MBC: > 100 µg/mL
[5]; read-out: MIC (µg/mL) mean
  MIC: > 100 µg/mL
